Measurements taken from PubChem BioAssay AID743384 (Vanderbilt Specialized Chemistry Center, 2014).
The source made the active and inactive calls. The rule behind the calls is not given here.

Columns and labels:
[1] = biological target: Metabotropic glutamate receptor 7 (Homo sapiens) (UniProt Q14831); assay: mGlu7 positive allosteric modulators, dose response, cell-based, calcium mobilization, Galpha15 (AID 743384); conditions: mGlu7/Ga15, calcium fluorescence PAM
[2] = biological target: Metabotropic glutamate receptor 7 (Rattus norvegicus) (UniProt P35400); assay: as above; conditions: mGlu7/Ga15, calcium fluorescence PAM; stronger effect = higher value
Chain of Metabotropic glutamate receptor 7 (Rattus norvegicus) (P35400 whole entry, looked up): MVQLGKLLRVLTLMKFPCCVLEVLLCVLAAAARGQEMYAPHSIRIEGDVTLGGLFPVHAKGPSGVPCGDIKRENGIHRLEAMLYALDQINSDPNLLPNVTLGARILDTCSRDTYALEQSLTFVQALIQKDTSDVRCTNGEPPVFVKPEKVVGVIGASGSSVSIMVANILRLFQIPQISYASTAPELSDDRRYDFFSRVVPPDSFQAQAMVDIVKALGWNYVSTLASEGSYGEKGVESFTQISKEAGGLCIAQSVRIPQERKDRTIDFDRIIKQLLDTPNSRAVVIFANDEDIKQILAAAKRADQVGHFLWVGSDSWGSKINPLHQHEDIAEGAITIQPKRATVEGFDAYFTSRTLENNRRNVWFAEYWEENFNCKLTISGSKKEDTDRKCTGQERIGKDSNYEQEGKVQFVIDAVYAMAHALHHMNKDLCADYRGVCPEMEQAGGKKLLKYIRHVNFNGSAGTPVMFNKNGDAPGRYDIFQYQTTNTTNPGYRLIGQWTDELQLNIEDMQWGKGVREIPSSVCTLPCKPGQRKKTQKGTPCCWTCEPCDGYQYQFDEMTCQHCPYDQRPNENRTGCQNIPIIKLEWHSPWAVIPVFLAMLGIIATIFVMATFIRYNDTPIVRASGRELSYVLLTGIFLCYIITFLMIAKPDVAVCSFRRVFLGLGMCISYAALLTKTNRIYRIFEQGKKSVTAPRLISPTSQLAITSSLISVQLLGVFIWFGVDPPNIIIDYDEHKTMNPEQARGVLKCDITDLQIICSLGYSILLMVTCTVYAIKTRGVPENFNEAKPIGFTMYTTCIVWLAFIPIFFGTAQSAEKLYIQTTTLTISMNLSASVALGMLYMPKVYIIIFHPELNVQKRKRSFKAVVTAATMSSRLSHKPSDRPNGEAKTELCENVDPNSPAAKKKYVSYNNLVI

Chain of Metabotropic glutamate receptor 7 (Homo sapiens) (Q14831 whole entry, looked up): as the sequence (P35400 whole entry, looked up) above, with G5R, V27A, H454N, T488S, S520A, N578D counted along it

| EC50 [1] [µM] | % glutamate max response [2] | SMILES |
| --- | --- | --- |
| 1.5 |  | COC(=O)c1ccc(-n2c(C)cc(C(=O)CSc3ccc(NC(C)=O)cc3)c2C)cc1 |
|  | inactive | COC(=O)c1ccc(-n2c(C)cc(C(=O)COc3cccc(N(C)C)c3)c2C)cc1 |
|  | inactive | COC(=O)c1ccc(-n2c(C)cc(C(=O)CNc3ccc(C(=O)O)cc3)c2C)cc1 |
|  | inactive | CCOc1ccc(-n2c(C)cc(C(=O)CSc3ccc(OC)cc3)c2C)cc1 |
